Measurements: paper PMC11475408, “All‐Inorganic Polyoxometalates Act as Superchaotropic Membrane Carriers” (Advanced Materials (Deerfield Beach, Fla.), 2023)

Experiments:
[1] = U-tube transport experiment through CHCl3; settings: CHCl3 bulk phase; CF 100, POM 50, heptaArg 10 µM; 24 h; fluorescence
Description: In the U‐tube experiments, the trans phase contained only buffer, and the cis phase is loaded with combinations of CF, carrier (POM), and cargo (heptaArg). Aliquots of the trans phase are taken and evaluated by fluorescence at different times. The trans phase is initially (t = 0) nonfluorescent, but the transport of CF from the cis phase through the chloroform barrier leads to fluorescence, signaling successful transport. […] This is consistent with translocation of a POM•heptaArg•CF complex through the organic phase, in support of the mechanism in Figure 1c.
The U‐tubes were house‐made, similar to those of Rebek^[ [82] ^] and Matile,^[ [54] ^] consisting in a small beaker with a central glass barrier, separating the two aqueous layers, cis ([…]) and trans (receiving phase), but allowing an interface chloroform layer below the cis and trans phases. 3 mL CHCl3 are placed into the U‐tube and 1 mL of the cis (combinations of carrier (POM), cargo (heptaArg) and CF in buffer) and trans (1 mL buffer) phases were added. The organic phase was stirred at 700 rpm at room temperature. Aliquots (25 µL) from the trans phase were taken at different times, 400 µL of buffer were added and measured by fluorescence.

[2] = system: methicillin-resistant Staphylococcus aureus (SR3605, ATCC43300); settings: in combination with β-Lactamase; Mueller-Hinton broth, pH 7.4, 34 °C; ref [8]; cited from earlier work
Description: page 4: 2. Literature survey Table S1. Survey of experimentally proven membrane penetration of POMs according to a search in Scopus (“polyoxometalate” and “membrane penetration”) up to the submission date of the manuscript.

cationic oligopeptides = test: ITC, POM with the peptides (general statement); assay type: binding
Protocol: To affect membrane transport, any carrier needs to display an affinity toward the cargo as well as toward the lipid bilayer. Accordingly, the interaction between [PVW11]^4‒ and [SiMoW11]^4‒ and the peptides was analyzed by isothermal titration calorimetry (ITC, Figure 2c,d; and Figures S10 and S11, Supporting Information). […] (enthalpically driven, interaction with the peptide backbones, Table S6, Supporting Information) and Coulombic interactions (interaction with arginine and lysine side chains). The strong but reversible intermolecular interactions between the low‐charged POMs and the cationic oligopeptides present an interesting finding, which was measured for both, oligo‐ and polypeptides. Previous ITC studies have focused only on the binding of proteins with highly charged and therefore weakly chaotropic POMs (n < −6, Table S3, Supporting Information), where electrostatic interactions were implied as main driving force.^[ [65], [66], [67], [68], [69], [70], [71], [72], [73] ^]
All experiments were performed with a VP‐ITC MicroCalorimeter from MicroCal, Int,. at atmospheric pressure and 298.15 K. Solutions were degassed and thermostatic prior to the titration experiments in a ThermoVac accessory. […] Dilution heats were determined by titration of the POM into buffer and subtracted from the reaction heat. […]

heptaarginine = test: ITC, POM into heptaarginine; assay type: binding; settings: 10 mM Tris; for Ka/ 107, heptaarginine: pH 7.4, 298.15 K, value is Ka divided by 10^7, duplicates; for Ka, heptaarginine (Figure 2c,d): pH 7.4, POM/oligoarginine 100/8 and 200/10 µM
Protocol: All experiments were performed with a VP‐ITC MicroCalorimeter from MicroCal, Int,. at atmospheric pressure and 298.15 K. Solutions were degassed and thermostatic prior to the titration experiments in a ThermoVac accessory. A constant volume of POM ([PVW11]^4‒ or [SiMoW11]^4‒) (10 µL per injection) was injected into the oligopeptide solution (heptaArg, protamine, polyArg or heptaLys) in 10 mM Tris, pH 7.4 to determine the apparent binding affinity of [PVW11]^4‒ and [SiMoW11]^4‒ with the oligopeptides. Dilution heats were determined by titration of the POM into buffer and subtracted from the reaction heat. The neat reaction heat was fitted with Origin 7.0 software by using the “one‐set‐of‐sites” model to obtain the complex stability constant (K a) and molar reaction enthalpy (∆H°). The free energy (∆G°) and entropy changes (∆S°) were obtained according to the relation: ∆G° = −RTlnK a = ∆H°−T∆S°.
4. Supramolecular interactions
Figure S10. Microcalorimetric titrations in 10 mM Tris, pH 7.4: Raw ITC data (top) for the sequential injections of POM solution into an oligoarginine solution, and apparent reaction heats (bottom) obtained from the integration of the calorimetric traces. […]
values and ± 0.5 kcal mol‒1 for ΔH and TΔS (duplicate measurements). Note that none of these interactions lead to any precipitation or aggregates, confirmed by the absence of any detectable signal by DLS. […]
Figure S11. Microcalorimetric titrations in 10 mM Tris, pH 7.4: Raw ITC data (top) for the sequential injections of POM solution into a heptalysine solution, and apparent reaction heats (bottom) obtained from the integration of the calorimetric traces. POM/heptalysine concentrations in µM: a, 200/8 and b, 150/10. Error data is 5% for the n values and ± 0.5 kcal mol‒1 for ΔH and TΔS (duplicate […]
Table S6. Binding constants (Ka in M‒1) and thermodinamic data (in kcal mol‒1) measured for the complex formation between the stable and active POMs and oligoarginines in 10 mM Tris, pH 7.4. a) […]
a) Error data is 5% for the n values and ± 0.5 kcal mol‒1 for ΔH and TΔS (duplicate measurements).

| Substance | Carrier behaviour in U-tube (CF in trans phase) [1] | MIC [2] | Supramolecular interaction with the peptides (order of magnitude) (cationic oligopeptides) | Ka/ 107, heptaarginine (heptaarginine) | Ka, heptaarginine (Figure 2c,d) (heptaarginine) |
| --- | --- | --- | --- | --- | --- |
| K4[α‐P^VV^VW^VI 11O40]·4H2O [[PVW11]^4‒] | act as “real” carriers | 800 mg/L | ~10^7 M ^−1 | 5.7 M‒1 | 5.7e+07 M⁻¹ |
| K4[α‐Si^IVMo^VIW^VI 11O40]·24H2O [[SiMoW11]^4‒] | act as “real” carriers | – | ~10^7 M ^−1 | 0.6 M‒1 | 6.3e+06 M⁻¹ |
